pIC50: −log10 of the molar value.
Biological target: KRAS G12C (Homo sapiens (Human), UniProt P01116, C118A/G12C)
Assay: 2 h coupled exchange assay
Assay type: biochemical
Conditions: Avg 2 h Coupled exchange IC50, 2 h compound pre-incubation
Protocol: The term “2 h coupled exchange assay” or “20 h coupled exchange assay” as used herein refers to the assay described in the Section entitled “BIOLOGICAL EVALUATION.”

KRAS G12C, sequence (P01116 other isoform, or with tags, fused parts or gaps G12C/C118A): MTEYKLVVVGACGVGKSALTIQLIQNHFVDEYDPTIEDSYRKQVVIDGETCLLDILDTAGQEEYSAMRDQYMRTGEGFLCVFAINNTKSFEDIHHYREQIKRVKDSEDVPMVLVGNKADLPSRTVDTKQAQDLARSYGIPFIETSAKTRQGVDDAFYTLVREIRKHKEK

Row | Structure (SMILES) | pIC50
1 | C=CC(=O)N1CC2(CCN(c3nc4c(c(-c5c(C)ccc6[nH]ncc56)c3C)COC(C)(C)C4)C2)C1 (single isomer, unassigned) [Example 14-34, (M)-1-(6-(3,7,7-trimethyl-4-(5-methyl-1H-indazol-4-yl)-7,8-dihydro-5H-pyrano[4,3-b]pyridin-2-yl)-2,6-diazaspiro[3.4]octan-2-yl)-2-propen-1-one] | 5.12
2 | C=CC(=O)N1CC2(CCN(c3nc4c(c(-c5c(C)c(C)cc6cnn(C)c56)c3C)COC(C)(C)C4)C2)C1 (single isomer, unassigned) [Example 14-42, (M)-1-(6-(3,7,7-trimethyl-4-(1,5,6-trimethyl-1H-indazol-7-yl)-7,8-dihydro-5H-pyrano[4,3-b]pyridin-2-yl)-2,6-diazaspiro[3.4]octan-2-yl)-2-propen-1-one] | 5.11
3 | C=CC(=O)N1CC2(CCN(c3nc4c(c(-c5cccc6cc(O)ccc56)c3C)COC(C)(C)C4)C2)C1 (single isomer, unassigned) [Example 14-45, (M)-1-(6-(4-(6-hydroxy-1-naphthalenyl)-3,7,7-trimethyl-7,8-dihydro-5H-pyrano[4,3-b]pyridin-2-yl)-2,6-diazaspiro[3.4]octan-2-yl)-2-propen-1-one] | 5.13
4 | C=CC(=O)N1CC2(CCN(c3nc4c(c(-c5c(C)ccc6cn[nH]c56)c3C#N)C[C@H]3C[C@@H]4C3(C)C)C2)C1 (single isomer, unassigned) [Example 14-52] | 5.99
5 | C=CC(=O)N1CC2(CCN(c3nc4c(c(-c5ccc(F)c6sc(N)nc56)c3C#N)COC(C)(C)C4)C2)C1 (single isomer, unassigned) [Example 14-58, (M)-4-(2-amino-7-fluoro-1,3-benzothiazol-4-yl)-7,7-dimethyl-2-(2-(2-propenoyl)-2,6-diazaspiro[3.4]octan-6-yl)-7,8-dihydro-5H-pyrano[4,3-b]pyridine-3-carbonitrile] | 6.45
6 | C=CC(=O)N1CC2(CCN(c3nc4c(c(-c5c(C)ccc6cnn(C)c56)c3F)C[C@H]3C[C@@H]4C3(C)C)C2)C1 (single isomer, unassigned) [Example 14-63] | 6.44
7 | C=CC(=O)N1CC2(CCN(c3nc4c(c(-c5c(C)ccc6cnn(C)c56)c3F)C[C@H]3C[C@@H]4C3(C)C)C2)C1 (single isomer, unassigned) [Example 14-64] | 4.93
8 | C=CC(=O)N1CC2(CCN(c3nc4c(c(-c5cccc6cc(O)ccc56)c3F)COC(C)(C)C4)C2)C1 (single isomer, unassigned) [Example 14-66, (P)-1-(6-(3-fluoro-4-(6-hydroxy-1-naphthalenyl)-7,7-dimethyl-7,8-dihydro-5H-pyrano[4,3-b]pyridin-2-yl)-2,6-diazaspiro[3.4]octan-2-yl)-2-propen-1-one] | 4.47
9 | C=CC(=O)N1CC2(CCN(c3nc4c(c(-c5c(C)ccc6[nH]ncc56)c3F)C[C@H]3C[C@@H]4C3(C)C)C2)C1 (single isomer, unassigned) [Example 14-74] | 5.81
10 | C=CC(=O)N1CC2(CCN(c3nc4c(c(-c5c(C)ccc6cnn(C)c56)c3F)C[C@H]3C[C@@H]4C3(C)C)C2)C1 (single isomer, unassigned) [Example 14-75] | 6.14
11 | C=CC(=O)N1CC2(CCN(c3nc4c(c(-c5c(C)c(Cl)cc6cnn(C)c56)c3F)COC(C)(C)C4)C2)C1 (single isomer, unassigned) [Example 14-78, (M)-1-(6-(4-(5-chloro-1,6-dimethyl-1H-indazol-7-yl)-3-fluoro-7,7-dimethyl-7,8-dihydro-5H-pyrano[4,3-b]pyridin-2-yl)-2,6-diazaspiro[3.4]octan-2-yl)-2-propen-1-one] | 7.64
12 | C=CC(=O)N1CC2(CCN(c3nc4c(c(-c5c(C)c(Cl)cc6cnn(C)c56)c3F)COC(C)(C)C4)C2)C1 (single isomer, unassigned) [Example 14-79, (P)-1-(6-(4-(5-chloro-1,6-dimethyl-1H-indazol-7-yl)-3-fluoro-7,7-dimethyl-7,8-dihydro-5H-pyrano[4,3-b]pyridin-2-yl)-2,6-diazaspiro[3.4]octan-2-yl)-2-propen-1-one] | 5.02
13 | C=CC(=O)N1CC2(CCN(c3nc4c(c(-c5c(C)ccc6cn[nH]c56)c3C#N)COC(C)(C)C4)C2)C1 (single isomer, unassigned) [Example 14-82, (M)-7,7-dimethyl-4-(6-methyl-1H-indazol-7-yl)-2-(2-(2-propenoyl)-2,6-diazaspiro[3.4]octan-6-yl)-7,8-dihydro-5H-pyrano[4,3-b]pyridine-3-carbonitrile] | 5.24

More lines, in order of rising pIC50, values ahead:

Row | pIC50 | Structure (SMILES)
14 | 4.11 | C=CC(=O)N1CC2(CCN(c3nc4c(c(-c5cc(O)ccc5C)c3F)COC(C)(C)C4)C2)C1 (single isomer, unassigned) [Example 14-61, (M)-1-(6-(3-fluoro-4-(5-hydroxy-2-methylphenyl)-7,7-dimethyl-7,8-dihydro-5H-pyrano[4,3-b]pyridin-2-yl)-2,6-diazaspiro[3.4]octan-2-yl)-2-propen-1-one]
15 | 4.77 | C=CC(=O)N1CC2(CCN(c3nc4c(c(-c5cc(O)cc6ccccc56)c3F)COC(C)(C)C4)C2)C1 (single isomer, unassigned) [Example 14-69, (M)-1-(6-(3-fluoro-4-(3-hydroxy-1-naphthalenyl)-7,7-dimethyl-7,8-dihydro-5H-pyrano[4,3-b]pyridin-2-yl)-2,6-diazaspiro[3.4]octan-2-yl)-2-propen-1-one]
16 | 5.25 | C=CC(=O)N1CC2(CCN(c3nc4c(c(-c5cc(O)cc6ccccc56)c3C)COC(C)(C)C4)C2)C1 (single isomer, unassigned) [Example 14-35, (P)-1-(6-(4-(3-hydroxy-1-naphthalenyl)-3,7,7-trimethyl-7,8-dihydro-5H-pyrano[4,3-b]pyridin-2-yl)-2,6-diazaspiro[3.4]octan-2-yl)-2-propen-1-one]
17 | 5.47 | C=CC(=O)N1CC2(CCN(c3nc4c(c(-c5cc(O)ccc5C)c3F)C[C@H]3C[C@@H]4C3(C)C)C2)C1 (single isomer, unassigned) [Example 14-60]
18 | 5.75 | C=CC(=O)N1CC2(CCN(c3nc4c(c(-c5ccc(F)c6sc(N)nc56)c3C)COC(C)(C)C4)C2)C1 (single isomer, unassigned) [Example 14-39, (M)-1-(6-(4-(2-amino-7-fluoro-1,3-benzothiazol-4-yl)-3,7,7-trimethyl-7,8-dihydro-5H-pyrano[4,3-b]pyridin-2-yl)-2,6-diazaspiro[3.4]octan-2-yl)-2-propen-1-one]
19 | 6.16 | C=CC(=O)N1CC2(CCN(c3nc4c(c(-c5cc(O)ccc5C)c3F)COC(C)(C)C4)C2)C1 (single isomer, unassigned) [Example 14-62, (P)-1-(6-(3-fluoro-4-(5-hydroxy-2-methylphenyl)-7,7-dimethyl-7,8-dihydro-5H-pyrano[4,3-b]pyridin-2-yl)-2,6-diazaspiro[3.4]octan-2-yl)-2-propen-1-one]
20 | 6.19 | C=CC(=O)N1CC2(CCN(c3nc4c(c(-c5cccc6cc(O)ccc56)c3F)COC(C)(C)C4)C2)C1 (single isomer, unassigned) [Example 14-67, (M)-1-(6-(3-fluoro-4-(6-hydroxy-1-naphthalenyl)-7,7-dimethyl-7,8-dihydro-5H-pyrano[4,3-b]pyridin-2-yl)-2,6-diazaspiro[3.4]octan-2-yl)-2-propen-1-one]

Source: patent publication US20240059703A1 (AMGEN INC., priority 2021, published 2024)
